# Results published in patent publication US20250319034A1, “MICROSPHERE PRODUCTION METHOD” (VITALTE LIFESCIENCES INC., priority 2024, published 2025).
# Experiment: T release study in saline incubation media
# Format: physicochemical
# Details: saline incubation media, 2, 4 and 6 hours
# Experimental: In order to compare the release rate results of hydrogel encapsulated T to pelleted T, larger gels had to be prepared as the T pellets which the hydrogels are intended to replace are 25 mg, where the E2 pellets are merely 6 mg. Thus, approximately 83 mg of hydrogel at 30% T loading and 1% HA were prepared. In order to achieve even or consistent crosslinking in these much larger hydrogel samples, Likarda's patented micromolds (shown in FIG. 21) were employed. After formation, the encapsulated T was removed from the molds and placed in tubes to be rotated for an hour. The encapsulated T hydrogels were then removed from the tubes and stored in Dulbecco's PBS buffer. The large hydrogel blocks encapsulating T were then tested and compared to 25 mg T pellets and micronized T powder.
# The T powder was produced as a 2.5 mg/mL slurry in buffer to reach the near saturation point of T in the buffer. Samples of the T powder slurry were removed from only the top layer of the slurry fluid to avoid aspirating T particles in the slurry that may have precipitated at to the bottom. T pellets were collected directly from the vials in which they were stored. The 83 mg hydrogels containing 30% T were collected from Dulbecco's PBS buffer, rinsed, and dried. Each of the collected samples was then placed in a separate container of incubation media (saline in this instance) for the release studies. […]
smiles,measurement,value
"C[C@]12CC[C@H]3[C@@H](CCC4=CC(=O)CC[C@@]43C)[C@@H]1CC[C@@H]2O [T powder, Testosterone]",approximate saturation level of T in saline,about 1.5 mg/L
